Measurements published in article PMC4229492 (International journal of toxicology, 2014).
Several values for one entry are separate records, joined by “and”; a condition that tells them apart may be missing. Equal entries are not always repeated.

Legend:
[1] = test system: Salmonella typhimurium TA98; assay: Ames assay, strain TA98; assay type: cell-based; conditions: for Mutagenic response (dose-related increase in revertant colonies): TA98, with and without metabolic activation; for Cytotoxicity to TA98: under any test condition; for Doses at which precipitate was seen on the plates: Ames plates
human whole blood = assay: In vitro methemoglobin assay; assay type: cell-based
[2] = test system: human liver cancer cell lines (HepG2, Hep3B, Huh7, PLC5); assay: Cytotoxicity, panel of four human liver cancer cell lines; assay type: cell-based; conditions: read-out: IC50 values, range over the panel of human liver cells
T. b. rhodesiense = conditions: read-out: antitrypanosomal IC50; T. b. rhodesiense in vitro; cited from earlier work
L6 rat myoblasts = conditions: read-out: IC50 against the L6 cell line; L6 rat myoblasts in vitro; cited from earlier work
[3] = cited from earlier work
[4] = test system: first stage trypanosome infection; conditions: i.p. 50 mg/kg/day for five days; cited from earlier work

Row | SMILES | Mutagenic response (dose-related increase in revertant colonies) [1] | Cytotoxicity to TA98 [1] | Methemoglobin level (human whole blood; 10 μM, 60 min, 37 °C) | Methemoglobin level (human whole blood; 50 μM, 60 min, 37 °C) | Doses at which precipitate was seen on the plates [1] | Doses cytotoxic to the TA98 strain ([1]; in the absence of metabolic activation) | Doses cytotoxic to the TA98 strain ([1]; in the presence of metabolic activation) | IC50 [2] | IC50 (T. b. rhodesiense) | IC50 (L6 rat myoblasts) | OSU-36 plasma concentration ([3]; intravenous OSU-36.HCl 2 mg/kg, measured at 60 min, analyte OSU-36) | Outcome in murine first stage trypanosomiasis model [4] | Deacetylation in vivo ([3]; preliminary pharmacokinetic studies in rats) | Methemoglobin level (human whole blood; 5 mM, 10 min) | Methemoglobin level (human whole blood; 5 mM, 30 min) | Methemoglobin level (human whole blood; 5 mM, 60 min)
1 | CC1=CC(C)(C)N(Cc2ccccc2)c2ccc(Cl)cc21 [JR-I-78, 1-benzyl-6-chloro-2,2,4-trimethyl-1,2-dihydroquinoline] | did not elicit a mutagenic response | not cytotoxic | 0.8% | 0.8% | – | – | – | – | – | – | – | – | – | – | – | –
2 | CC1=CC(C)(C)N(Cc2ccccc2)c2ccc(O)cc21.Cl [OSU-36.HCl, 1-benzyl-1,2-dihydro-2,2,4-trimethylquinolin-6-ol hydrochloride] | did not elicit a mutagenic response | – | 2.1% | 9.3% | ≥ 500 μg/plate | ≥ 100 μg/plate | ≥ 500 μg/plate | 5.2 to 20 µM | 0.013 µM | 11 µM | approximately 150 ng/mL and ~ 0.53 μM | resulted in cures | – | – | – | –
3 | CC(=O)Oc1ccc2c(c1)C(C)=CC(C)(C)N2Cc1ccccc1 [OSU-40, 1-benzyl-1,2-dihydro-2,2,4-trimethylquinolin-6-yl acetate] | – | – | – | – | – | – | – | 8 to 36 µM | 0.012 µM | 24 µM | – | – | rapidly deacetylated | – | – | –
4 | COc1ccccc1CN1c2ccc(OC(C)=O)cc2C(C)=CC1(C)C [OSU-75, 1-(2-methoxybenzyl)-1,2-dihydro-2,2,4-trimethylquinolin-6-yl acetate] | did not elicit a mutagenic response | not cytotoxic | 1.2% | 3.8% | ≥ 500 μg/plate | – | – | – | – | – | – | resulted in cures | – | – | – | –
5 | O=N[O-].[Na+] [Sodium nitrite, reference compound] | – | – | – | – | – | – | – | – | – | – | – | – | – | 37.4% | 41.2% | 50.6%
